Reference: patent publication US12612403B2, “Nitrogen-containing heterocyclic derivative inhibitor, and preparation method therefor and use thereof” (SHANGHAI HANSOH BIOMEDICAL CO., LTD., priority 2024, dated 2026)

Experiments:
LDL-C = details: combined with a statin; cited from earlier work
[1] = tested on: PCSK9 secreted by HepG2 cells; assay: Effect on the concentration of PCSK9 secreted by HepG2 cells (ELISA); format: cell-based; details: Homo sapiens, 48 hours, PCSK9 in culture medium by ELISA
Summary of the method: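 HepG2 cells treated with compound for 48 h at 37° C., 5% CO2. Secreted PCSK9 in medium quantified by sandwich ELISA (HRP detection, OD 450 nm) against a 0–10 ng/mL standard curve. Inhibition relative to control; IC50 fitted from concentration–inhibition data.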

[2] = tested on: LDLR level in HepG2 cells; assay: Effect on the LDLR level in HepG2 cells (ELISA); format: cell-based, Human; details: 48 hours, LDLR in lysate by ELISA
Experimental: 1. Experimental objective: To detect the effect of the compounds on the LDLR protein level.
2. […] A self-adhesive seal was applied, the plate was placed on a plate shaker at room temperature, gently shaken, uniformly mixed, and incubated for 2 hours. • 11) The plate was placed on the plate washer, the washing liquid was set to 350 μL per well, and the plate was washed 4 times repeatedly. • 12) 200 μL of Human LDLR conjugate was added, a self-adhesive seal was applied, and the plate was placed on the plate shaker, well mixed uniformly, and incubated for 2 hours. • 13) The plate was placed on the plate washer, the washing liquid was set to 350 μL per well, and the plate was washed 4 times repeatedly. • 14) 200 μL/well of Substrate solution was added, and the plate was placed in the dark, applied with a self-adhesive seal, placed on the plate shaker, well mixed uniformly, and incubated for 20 minutes. • 15) 50 μL/well of Stop solution was added and mixed uniformly over 20 min. • 16) The optical density (OD) value in each well was measured in sequence at a wavelength of 450 nm by the microplate reader.
3. Experimental data processing method: After the OD values were read by the microplate reader, the OD value of the 0-concentration standard in the standard group was subtracted from the OD values of the standards, control group, and samples to obtain the actual OD values for these wells. […]

IC50 [1] | Compound | reduce LDL-C (LDL-C) | LDLR expression level [2]
 | O=C1[C@H](CC[C@H](O)c2ccc(F)cc2)[C@@H](c2ccc(O)cc2)N1c1ccc(F)cc1 [Ezetimibe] | 15-20% | 
17.6 µM | O=C1c2c(cccc2C(F)(F)F)CN1c1ccc(N[C@H]2CC[C@H](Nc3nc4cc(F)ccn4n3)C2)nc1 [Example 25] |  | 132%
 | O=C1c2ncncc2CN1c1ccc(N[C@H]2CC[C@H](Nc3nc4cc(F)ccn4n3)C2)nc1 [Example 21, 6-(6-(((1S,3S)-3-((7-fluoro-[1,2,4]triazolo[1,5-a]pyridin-2-yl)amino)cyclopentyl)amino)pyridin-3-yl)-5,6-dihydro-7H-pyrrolo[3,4-d]pyrimidin-7-one] |  | 135%
